Laboratory results reported in ChEMBL document CHEMBL1125092, “Nonneurotoxic tetralin and indan analogues of 3,4-(methylenedioxy)amphetamine (MDA)” (J Med Chem, 1990).
pKd: −log10 of the molar value.

Experiments:
Rattus norvegicus [1] = species on record: Rattus norvegicus; assay: Compounds were evaluated for binding of [3H]paroxetine to rat brain cortical homogenate and number of binding sites (Bmax) for serotonin; type: tissue-based
[2] = Binding affinity was determined towards serotonin uptake site in presence of [3H]paroxetine radioligand in rat brain cortical homogenate; type: tissue-based
[3] = Binding affinity was determined towards serotonin uptake site in presence of [3H]paroxetine radioligand in rat hippocampal homogenate; type: tissue-based, Hippocampus
Rattus norvegicus [4] = species on record: Rattus norvegicus; assay: Compounds were evaluated for binding of [3H]paroxetine to rat hippocampal homogenate and number of binding sites (Bmax) for serotonin; type: tissue-based; conditions: Hippocampus
Rattus norvegicus [5] = assay: Percentage of animals disrupted was determined in groups of MDMA trained rats at a dose of 3.81 (umol/kg),(no of animals = 8); type: functional
Rattus norvegicus [6] = assay: Percentage of animals disrupted was determined in groups of MDMA trained rats at a dose of 7.62 (umol/kg),(no of animals = 8); type: functional
Rattus norvegicus [7] = assay: Percentage of animals disrupted was determined in groups of MDMA trained rats at a dose of 0.95 (umol/kg),(no of animals = 8); type: functional
Rattus norvegicus [8] = assay: Percentage of animals disrupted was determined in groups of MDMA trained rats at a dose of 1.90 (umol/kg),(no of animals = 8); type: functional
Rattus norvegicus [9] = assay: Monoamine levels in at hippocampus were evaluated after subcutaneous administration of 40 mg/kg for NE; type: functional
Rattus norvegicus [10] = assay: Monoamine levels in rat brain were evaluated after subcutaneous administration of 40 mg/kg for 5-HIAA; type: functional
Rattus norvegicus [11] = assay: Monoamine levels in rat brain were evaluated after subcutaneous administration of 40 mg/kg for 5-HT; type: functional
Rattus norvegicus [12] = assay: Monoamine levels in rat brain were evaluated after subcutaneous administration of 40 mg/kg for DA; type: functional
Rattus norvegicus [13] = assay: Monoamine levels in rat brain were evaluated after subcutaneous administration of 40 mg/kg for DOPAC; type: functional
Rattus norvegicus [14] = assay: Monoamine levels in rat brain were evaluated after subcutaneous administration of 40 mg/kg for HVA; type: functional
Rattus norvegicus [15] = assay: Monoamine levels in rat hippocampus were evaluated after subcutaneous administration of 40 mg/kg for 5-HIAA; type: functional
Rattus norvegicus [16] = assay: Monoamine levels in rat hippocampus were evaluated after subcutaneous administration of 40 mg/kg for 5-HT; type: functional
Rattus norvegicus [17] = assay: Tested for stimulus generation in rats trained to discriminate MDMA from saline at a dose 1.90 (umol/kg) (number of animals = 8); type: functional
Rattus norvegicus [18] = assay: Tested for stimulus generation in rats trained to discriminate MDMA from saline at a dose 3.81 (umol/kg),(number of animals = 8); type: functional
Rattus norvegicus [19] = assay: Tested for stimulus generation in rats trained to discriminate MDMA from saline at a dose 7.62 (umol/kg),(number of animals = 8); type: functional
Rattus norvegicus [20] = assay: Monoamine levels in rat brain were evaluated after subcutaneous administration of 40 mg/kg for NE; type: functional
Rattus norvegicus [21] = assay: Hallucinogenic property was determined in groups of LSD trained rats and percentage of animals disrupted was reported at a dose 4.39 (umol/kg),(number of animals = 12); type: functional
Rattus norvegicus [22] = assay: Hallucinogenic property was determined in groups of LSD trained rats and percentage of animals disrupted was reported at a dose 0.55 (umol/kg),(number of animals = 9); type: functional
Rattus norvegicus [23] = assay: Hallucinogenic property was determined in groups of LSD trained rats and percentage of animals disrupted was reported at a dose 2.2 (umol/kg),(number of animals = 8); type: functional
Rattus norvegicus [24] = assay: Hallucinogenic property was determined in groups of LSD trained rats and percentage of animals disrupted was reported at a dose 2.74 (umol/kg),(number of animals = 8); type: functional
Rattus norvegicus [25] = assay: Hallucinogenic property was determined in groups of LSD trained rats and percentage of animals disrupted was reported at a dose 8.78 (umol/kg),(number of animals = 11); type: functional
Rattus norvegicus [26] = assay: Hallucinogenic property was determined in groups of MDMA trained rats and percentage of animals disrupted was reported at 8.78 (umol/kg),(number of animals = 12; type: functional
Rattus norvegicus [27] = assay: Hallucinogenic property was determined in groups of MDMA trained rats and percentage of animals disrupted was reported at a dose 1.1 (umol/kg),(number of animals = 8; type: functional
Rattus norvegicus [28] = assay: Hallucinogenic property was determined in groups of MDMA trained rats and percentage of animals disrupted was reported at a dose 2.2 (umol/kg),(number of animals = 11; type: functional
Rattus norvegicus [29] = assay: Hallucinogenic property was determined in groups of MDMA trained rats and percentage of animals disrupted was reported at a dose 2.74 umol/kg),(number of animals = 12; type: functional
Rattus norvegicus [30] = assay: Hallucinogenic property was determined in groups of MDMA trained rats and percentage of animals disrupted was reported at a dose 3.29 (umol/kg),(number of animals =10; type: functional
Rattus norvegicus [31] = assay: Hallucinogenic property was determined in groups of MDMA trained rats and percentage of animals disrupted was reported at a dose 4.39 (umol/kg),(number of animals = 9); type: functional
Rattus norvegicus [32] = assay: Hallucinogenic property was determined in groups of MDMA trained rats and percentage of animals disrupted was reported at a dose 6.59 (umol/kg),(number of animals = 9; type: functional
Rattus norvegicus [33] = assay: Hallucinogenic property was determined in groups of MDMA trained rats and percentage of animals disrupted was reported at a dose 7.69 (umol/kg),(number of animals = 12); type: functional
Rattus norvegicus [34] = assay: Hallucinogenic property was determined in groups of MDMA trained rats and percentage of animals selecting drug lever was reported at 13.18 (umol/kg),(number of animals = 5; type: functional
Rattus norvegicus [35] = assay: Hallucinogenic property was determined in groups of LSD trained rats and percentage of animals disrupted was reported at a dose 6.59 (umol/kg),(number of animals = 15); type: functional
Rattus norvegicus [36] = assay: Hallucinogenic property was determined in groups of LSD trained rats and percentage of animals disrupted was reported at 1.10 (umol/kg),(number of animals = 9); type: functional
Rattus norvegicus [37] = assay: Tested for stimulus generation in rats trained to discriminate LSD from saline at a dose 0.55 (umol/kg),(number of animals = 9); type: functional
Rattus norvegicus [38] = assay: Tested for stimulus generation in rats trained to discriminate LSD from saline at a dose 1.10 (umol/kg),(number of animals = 9); type: functional
Rattus norvegicus [39] = assay: Tested for stimulus generation in rats trained to discriminate LSD from saline at a dose 2.74 (umol/kg),(number of animals = 8); type: functional
Rattus norvegicus [40] = assay: Tested for stimulus generation in rats trained to discriminate LSD from saline at 2.2 (umol/kg),(number of animals = 8); type: functional
Rattus norvegicus [41] = assay: Tested for stimulus generation in rats trained to discriminate +/-MDMA from saline at 1.10 (umol/kg),(number of animals = 8); type: functional
Rattus norvegicus [42] = assay: Tested for stimulus generation in rats trained to discriminate +/-MDMA from saline at 6.59 (umol/kg),(number of animals = 9); type: functional
Rattus norvegicus [43] = assay: Tested for stimulus generation in rats trained to discriminate +/-MDMA from saline at 7.69 (umol/kg),(number of animals = 12); type: functional
Rattus norvegicus [44] = assay: Tested for stimulus generation in rats trained to discriminate +/-MDMA from saline at 8.78 (umol/kg),(number of animals = 12); type: functional
Rattus norvegicus [45] = assay: Tested for disruption in more than 50% rats trained to discriminate LSD from saline at a dose 8.78(uM/kg) (no. of animals =11); type: functional
Rattus norvegicus [46] = assay: Tested for stimulus generation in rats trained to discriminate LSD from saline at a dose 6.59 (umol/kg),(number of animals = 15); type: functional
Rattus norvegicus [47] = assay: Tested for stimulus generation in rats trained to discriminate +/-MDMA from saline at 2.2 (umol/kg),(number of animals = 11); type: functional
Rattus norvegicus [48] = assay: Tested for stimulus generation in rats trained to discriminate +/-MDMA from saline at 2.74 (umol/kg),(number of animals = 12); type: functional
Rattus norvegicus [49] = assay: Tested for stimulus generation in rats trained to discriminate +/-MDMA from saline at 3.29 (umol/kg),(number of animals = 10); type: functional
Rattus norvegicus [50] = assay: Tested for stimulus generation in rats trained to discriminate +/-MDMA from saline at 4.39 (umol/kg),(number of animals = 9); type: functional
Rattus norvegicus [51] = assay: Tested for stimulus generation in rats trained to discriminate LSD from saline at a dose 4.39 (umol/kg),(number of animals = 12); type: functional

CNC(C)Cc1ccc2c(c1)OCO2 (stereo unspecified) [MIDOMAFETAMINE] showed a Bmax (Rattus norvegicus [1]) of under 643 fM/g, a pKd [2] of 9.91 and a pKd [3] of 9.71. It also gave a Bmax (Rattus norvegicus [4]) of under 348 fM/g, a D (Rattus norvegicus [5]) of 0% and a D (Rattus norvegicus [6]) of 0%. It also gave a D (Rattus norvegicus [7]) of 0%, a D (Rattus norvegicus [8]) of 0% and a Monoamine level (Rattus norvegicus [9]) of 429 pg/mg. The Monoamine level (Rattus norvegicus [10]) was under 230 pg/mg, the Monoamine level (Rattus norvegicus [11]) was under 161 pg/mg and the Monoamine level (Rattus norvegicus [12]) was 151 pg/mg. The Monoamine level (Rattus norvegicus [13]) was 212 pg/mg, the Monoamine level (Rattus norvegicus [14]) was 318 pg/mg and the Monoamine level (Rattus norvegicus [15]) was under 256 pg/mg. It also gave a Monoamine level (Rattus norvegicus [16]) of under 105 pg/mg, an SDL (Rattus norvegicus [17]) of 25% and an SDL (Rattus norvegicus [18]) of 75%. It also gave an SDL (Rattus norvegicus [19]) of 100% and a Monoamine level (Rattus norvegicus [20]) of 375 pg/mg.
In the case of NC1CCc2c(ccc3c2OCO3)C1 (stereo unspecified), the D (Rattus norvegicus [21]) was 33%, the D (Rattus norvegicus [22]) was 11% and the D (Rattus norvegicus [23]) was 0%. It also gave a D (Rattus norvegicus [24]) of 0%, a D (Rattus norvegicus [25]) of 55% and a D (Rattus norvegicus [26]) of 42%. The D (Rattus norvegicus [27]) was 38%, the D (Rattus norvegicus [28]) was 27% and the D (Rattus norvegicus [29]) was 33%. For the same compound, the D (Rattus norvegicus [30]) was 20%, the D (Rattus norvegicus [31]) was 11% and the D (Rattus norvegicus [32]) was 11%. It also gave a D (Rattus norvegicus [33]) of 33%, a D (Rattus norvegicus [34]) of 100% and a D (Rattus norvegicus [35]) of 47%. For the same compound, the D (Rattus norvegicus [36]) was 11%, the SDL (Rattus norvegicus [37]) was 0% and the SDL (Rattus norvegicus [38]) was 13%. The SDL (Rattus norvegicus [39]) was 25%, the SDL (Rattus norvegicus [40]) was 25% and the SDL (Rattus norvegicus [41]) was 0%. It also gave an SDL (Rattus norvegicus [42]) of 75%, an SDL (Rattus norvegicus [43]) of 75% and an SDL (Rattus norvegicus [44]) of 71%. It also gave an SDL (Rattus norvegicus [45]) of 71%, an SDL (Rattus norvegicus [46]) of 38% and an SDL (Rattus norvegicus [47]) of 63%. The SDL (Rattus norvegicus [48]) was 63%, the SDL (Rattus norvegicus [49]) was 63% and the SDL (Rattus norvegicus [50]) was 50%. The SDL (Rattus norvegicus [51]) was 25%.
